Measured values: patent US8318638B2, “Plant activator” (Shiseido Company, Ltd., priority 1999, dated 2012)

What was measured:
Assay type in all cases: in vivo
broad bean = assay: Growth promotion effect on broad bean; conditions: 50 μm aqueous solution sprayed five consecutive days
Procedure: One month after seeding of broad bean, spraying of a 50 μm specific ketol fatty acid (I) aqueous solution was carried out for five consecutive days, and growth of the broad bean (plant width) was observed.

digitalis = assay: Growth promotion effect on digitalis; conditions: 80 μm aqueous solution, five consecutive days then once a week for six weeks; five-and-a-half months after spraying; FIG. 6
Procedure: Two weeks after seeding of digitalis, spraying of an 80 μm specific ketol fatty acid (I) aqueous solution was carried out for five consecutive days. Furthermore, three months after the start of the test; spraying of an 80 μm specific ketol fatty acid (I) aqueous solution was carried out for six weeks (once a week). Five-and-a-half months after the six-week spraying, the size of leaves and the plant height were measured.

chrysanthemum = assay: Growth promotion effect on chrysanthemum; conditions: 80 μM aqueous solution, five consecutive days then once a week for six weeks; four months after the last spraying; FIG. 7
Procedure: Two weeks after seeding of chrysanthemum, spraying of an 80 μm specific ketol fatty acid (I) aqueous solution was carried out for five consecutive days. Furthermore, three months after the start of the test, spraying of an 80 μM specific ketol fatty acid (I) aqueous solution was carried out for six weeks (once a week). Bolting was not observed at a nutrition growth stage of the chrysanthemum. Four months after the last spraying, the plant width was measured.

geranium = assay: Growth promotion effect on geranium; conditions: 80 μM aqueous solution, five consecutive days then once a week for six weeks; mottled and non-mottled leaf types; five-and-a-half months after last spraying; FIG. 8
Procedure: Two weeks after seeding of geranium, spraying of an 80 μM specific ketol fatty acid (I) aqueous solution was carried out for five consecutive days. Furthermore, three months after the start of the test, spraying of an 80 μM specific ketol fatty acid (I) aqueous solution was carried out for six weeks (once a week). Two types of geranium; i.e., geranium having mottled leaves and geranium having leaves of no mottles, were subjected to the test. Five-and-a-half months after the last spraying, the size of the leaves was measured.

[1] = tested on: Oryza sativa L. (variety: koshihikari); assay: Growth controlling effect on Oryza sativa L. seedlings (seed immersion)
Procedure: (1) Good-quality seeds of Oryza sativa L. (variety: koshihikari) (200 g) were immersed in water (800 mL) at 10° C. for 13 days. Thereafter, the seeds were equally divided into four groups, and the respective seed groups were immersed in specific ketol fatty acid (I) aqueous solutions (concentration: 0 μM, 1 μM, 10 μM, and 100 μM) (200 mL) at 30° C. for 1.5 days. The immersed seeds were planted in a four-divided seedbed tray, and grown under no light irradiation at 27° C. for three days. Subsequently, the grown seedlings were exposed to the typical outside environment. Six days after the exposure, 18 seedlings were randomly selected from each group, and the heights of the seedlings were measured, and then averaged. […] Subsequently, in consideration of practical handling of seedlings of Oryza sativa L., the effect of application of specific ketol fatty acid (I) was evaluated. […] In order to perform this evaluation, three weeks after the aforementioned light irradiation treatment, seedlings of each group were randomly selected, and the average of the proportions of the second leaves and third leaves was obtained. […] However, unlike the case of promotion of growth of the seedlings, the optimum concentration of the specific ketol fatty acid (I) aqueous solution is 1 μM.

strawberry seedlings = assay: Plant dormancy preventive test on strawberry
Procedure: When strawberry seedlings are exposed directly to low temperature conditions in winter, the seedlings enter dormancy, and growth of the seedlings is stopped. Whether or not the present plant activator exerts the effect of preventing dormancy was evaluated.
Specific ketol fatty acid (I) aqueous solutions [concentration: 10 μM, 100 μM, and 0 μM (control)] were applied through spraying to strawberry seedlings on August 27 (at day 0), September 3, and September 8. […] In the control group, no flower bud formation was observed.
At the one hundred and eighth day, percent dormancy (percentage of dormant plants—which are plants in which growth of small leaf buds with markings is not observed 15 days after a marking was applied to the leaf buds—with respect to the entirety of the test plants) was measured. As a result, in the control group, dormancy of the entire plants was observed.

Seeds of lettuce = assay: Dry stress suppressive effect on lettuce seeds (germination); conditions: for Number of germinated seeds: 50 seeds per group; for Germination rate (%: n = 50): seeds immersed 72 hours, dried in air 48 hours
Procedure: Seeds of lettuce (50 seeds per test group) were immersed in specific ketol fatty acid (I) aqueous solutions [concentration: 2 μM, 10 μM, 20 μM, and 0 μM (control)] for 72 hours, and dried in air for 48 hours. The resultant seeds were disposed on water-containing filter paper, and allowed to germinate. In each test group, germination rate—percentage (%) of germinated seeds with respect to the entirety of seeds—was obtained.

[2] = tested on: carpophores of Lentinus edodes; assay: Growth promotion effect on carpophore of Lentinus edodes (Berk.) Singer; conditions: 5 mL per piece, five days culture at 18° C.
Procedure: Wood (Quercus serrata) containing hyphae of Lentinus edodes was cut into pieces having a length of about 15 cm, and the pieces were immersed in 10° C. water for 24 hours, after which the pieces were allowed to stand in a container of high humidity. Subsequently, specific ketol fatty acid (I) aqueous solutions (concentration: 0 μm, 3 μM, 30 μm, and 100 μM) were applied through spraying to the resultant pieces (six pieces for each group). Each solution was applied to each group (5 mL for each piece). Subsequently, the carpophores of Lentinus edodes were cultured in the same container at 18° C. under weak light irradiation. This culture was continued for five days, and then growth of the carpophores of Lentinus edodes was observed. FIG. 16 is a photograph showing the carpophores of Lentinus edodes cultured in the groups (note: {circumflex over (1)} application of the specific ketol fatty acid (I) (0 μM), (2) (3 μM), (3). (30 μM), and (4) (100 μM)). The average of the carpophores per piece was 0 in the 0 μM application group, 0.17 in the 3 μM application group, 1.0 in the 30 μM application group, and 1.0 in the 100 μM application group.

CC/C=C\C/C=C\CC(=O)C(O)CCCCCCCC(=O)O (stereo not drawn) [specific ketol fatty acid (I), 9-hydroxy-10-oxo-12(Z),15(Z)-octadecadienoic acid]
duration of growth promotion effect (broad bean): maintained 48 days after the start of the test
growth of the broad bean (plant width) (broad bean; one month after seeding, FIG. 3): exerts the effect of promoting growth of the broad bean
plant height (digitalis): increased
size of leaves (digitalis): increased
plant width (chrysanthemum): increased significantly
size of the leaves (geranium): growth of the leaves of these two types is promoted
optimum concentration of the aqueous solution for controlling growth of the third leaves ([1]; seed immersion, FIG. 13): 1 µM
heights of the seedlings (degree of growth promotion) ([1]; seeds immersed in 1 μM, 10 μM, 100 μM solutions at 30° C. for 1.5 days, six days after exposure, 18 seedlings, FIG. 12): commensurate with the application amount
growth of the third leaves (proportions of second and third leaves) ([1]; seeds immersed in 1, 10, 100 μM solutions, three weeks after light irradiation treatment, FIG. 13): exerts the effect of controlling growth of the third leaves
formation of flower buds (strawberry seedlings; 10 μM and 100 μM aqueous solutions sprayed three times, cultured outdoors): flower bud formation proceeded, and the number of flowers increased
percent dormancy (strawberry seedlings; 10 μM and 100 μM sprayed, at the one hundred and eighth day, FIG. 14): dormancy of strawberry was prevented
dormancy preventive effect, low vs high concentration (strawberry seedlings; 10 μm vs 100 μM, FIG. 14): more significant in the group in which the specific ketol fatty acid (I) of low concentration (10 μm) was applied
Number of germinated seeds (Seeds of lettuce; 2 μM): 43
Germination rate (%: n = 50) (Seeds of lettuce; 2 μM): 86%
Number of germinated seeds (Seeds of lettuce; 10 μM): 49
Germination rate (%: n = 50) (Seeds of lettuce; 10 μM): 98%
Number of germinated seeds (Seeds of lettuce; 20 μM): 45
Germination rate (%: n = 50) (Seeds of lettuce; 20 μM): 90%
average of the carpophores per piece ([2]; 3 μM sprayed): 0.17
average of the carpophores per piece ([2]; 30 μM sprayed): 1.0
average of the carpophores per piece ([2]; 100 μM sprayed): 1.0
